Data: patent publication US20240391889A1, “ANTIMICROBIAL COMPOUNDS AND THE METHODS OF USE” (priority 2021, published 2024)
In brackets after ≈: the same amount, converted by molar mass. Numbered stars: 1 amine (or outer) side, 2 acyl side, 3 side chain; on linkers, the order of the positions; unused ones are H or OH. Square brackets hold non-standard residues; d marks the D form. Peptide text beside a SMILES is read from it. * marks the point of attachment. N(1S-cyclohexylethyl)Gly = C[C@H](NCC(=O)O)C1CCCCC1; N(3-imidazol-1-ylpropyl)Gly = O=C(O)CNCCCn1ccnc1; Gly(Nα-4-Cl-benzyl) = O=C(O)CNCc1ccc(Cl)cc1; N(4-Br-benzyl)Gly = O=C(O)CNCc1ccc(Br)cc1; N(2-thienylmethyl)Gly = O=C(O)CNCc1cccs1; N(tridecyl)Gly = CCCCCCCCCCCCCNCC(=O)O; N(4-F-Bzl)Gly = O=C(O)CNCc1ccc(F)cc1; X1 = CC(c1ccccc1)N(CC(=O)[*:2])[*:1]; Myristoyl = CCCCCCCCCCCCCC(=O)*; NFurfurylGly = O=C(O)CNCc1ccco1; Gly(N(CH2)3NH2) = NCCCNCC(=O)O; Gly(N-cHex) = O=C(O)CNC1CCCCC1; Nphe = O=C(O)CNCc1ccccc1; NPrGly = CCCNCC(=O)O; Nlys = NCCCCNCC(=O)O; Sar = CNCC(=O)O

Experiments:
[1] = in vitro; format: cell-based; conditions: human, HepG2 hepatocellular carcinoma cells
Experimental: The mammalian cell lines that were tested (HepG2, 3T3, and HaCat) were incubated with RMG9-11 for 72 hours and cell viability was determined via mitochondrial activity using an MTT reduction assay where viable cells reduce MTT to formazan. Toxicity is reported as the concentration of the peptoid that results in a 50% reduction in viable cells, termed toxicity dose 50% or TD50. […] SR is defined as the TD50 divided by MIC and provides a measure of the therapeutic window for a compound. Typically for most lead compounds that would continue through development and optimization, a SR of 10 is preferred while an SR of 100 is more desirable for a compound moving into preclinical animal model evaluation.
Hepatocellular carcinoma (HepG2), mouse fibroblast (3T3), and human keratinocyte (HaCat) cells were cultured in Dulbeco modified eagle media (DMEM) containing 10% fetal bovine serum (FBS) and 1% penicillin, streptomycin, and glutamine (PSG) at 37° C. and 5% CO2. Cells were collected and adjusted to […] to 4×10^5 cells/mL in phenol-red free DMEM and plated (100 μL) 96 well plates. 2-fold serial dilutions of 10× peptoid (11.1 μL) were added to each well in triplicate. Water (vehicle) was used as a negative control. Plates were incubated at 37° C. in 5% CO2 for 72 hours. Thiazolyl blue tetrazolium bromide (MTT) was added to each well (5 mg/mL; 20 μL) and incubated for 3 hours. Media was removed, DMSO (100 μL) was added, and plates were incubated at 37° C. for 10 minutes. Plates were read on a SPECTRAMAX M5 plate reader (Abs. 570 nm). The concentration of compound resulting in a 50% reduction in growth compared to control (toxicity dose 50%; TD50) was determined using GRAFIT. This procedure was repeated three times on separate days.

[2] = tested on: C. neoformans; format: cell-based, Cryptococcus neoformans; conditions: 72 h
Excerpt: (§1) This screening led to the discovery of RMG9-11 (FIG. 2C). The minimum inhibitory concentration (MIC) of resynthesized RMG9-11 was initially determined against C. albicans, C. neoformans, and the ESKAPE bacteria via CSLI guidelines (CLSI. Methods for Dilution Antimicrobial Susceptibility Tests for Bacteria That Grow Aerobically, 11th Edition. Clinical and Laboratory Standards Institute (2018); CLSI. Reference method for broth dilution antifungal susceptibility testing of yeasts; approved standard-third edition; CLSI document M27-A3. Clinical and Laboratory Standards Institute (2008)). […] C. albicans clinical isolates include a reference strain (M1), fluconazole susceptible strains (M4 and M6), and fluconazole resistant strains (M2, M3, M5, and M7). ATCC 64124 is multidrug resistant C. albicans strain that is resistant to amphotericin B, fluconazole, caspofungin, and flucytosine. All MICs were performed under CSLI guidelines in triplicate on at least three different days.
(§2) The minimum inhibitory concentration (MIC) of peptoids against fungal pathogens C. albicans and C. neoformans was determined following CLSI guidelines (Reference method for broth dilution antifungal susceptibility testing of yeasts; approved standard-third edition; CLSI document M27-A3.” CLSI. 2008.). Colonies were transferred from a streaked YPD plate to 0.85% saline to reach an OD530 between 0.18 and 0.25. This inoculant was diluted 1:100 into RPMI-MOPS and then further diluted 1:20 into RPMI-MOPS. 198 μL of inoculant was seeded into each well of a 96 well black-walled plate. 2-fold serial dilutions of 100× peptoid solutions were prepared in water and 2 μL of peptoid were added to each well in triplicate. […] MIC was defined as the lowest concentration of compound preventing fungal growth. This assay was repeated 3 times on separate days with each compound.

[3] = tested on: C. albicans; format: cell-based, Candida albicans; conditions: 24 h
Excerpt: as §1, §2

| Compound | CC50 at 72 h [1] | MIC C. neoformans [2] | MIC C. albicans [3] |
| --- | --- | --- | --- |
| CCCCCCCCCCCCCNCC(=O)N(CCC)CC(=O)N(CC(=O)N(CCCCN)CC(=O)N(CC(=O)N(CC(=O)N(CCCN)CC(N)=O)Cc1ccccc1)Cc1ccco1)Cc1ccc(Br)cc1 [Compound 911-M6] (H-[N(tridecyl)Gly][NPrGly][N(4-Br-benzyl)Gly][Nlys][NFurfurylGly][Nphe][Gly(N(CH2)3NH2)]-NH2) | 108 ± 13.6 µg/mL (≈ 97 µM) | 1.56 to 3.13 µg/mL | 6.25 µg/mL (≈ 5.64 µM) |
| CCCCCCCCCCCCCNCC(=O)N(CCC)CC(=O)N(C)CC(=O)N(CCCCN)CC(=O)N(CC(=O)N(CC(=O)N(CCCN)CC(N)=O)Cc1ccccc1)Cc1ccco1 [SAR 3] (H-[N(tridecyl)Gly][NPrGly][Sar][Nlys][NFurfurylGly][Nphe][Gly(N(CH2)3NH2)]-NH2) | 194 ± 7.5 µg/mL (≈ 204 µM) |  | 50 µg/mL (≈ 52.5 µM) |
| CCCCCCCCCCCCCNCC(=O)N(CCC)CC(=O)N(CC(=O)N(CCCCN)CC(=O)N(CC(=O)N(CC(=O)N(C)CC(N)=O)Cc1ccccc1)Cc1ccco1)C(C)c1ccccc1 (stereo not shown) [SAR 7] (H-[N(tridecyl)Gly][NPrGly][X1][Nlys][NFurfurylGly][Nphe][Sar]-NH2) | 57.7 ± 11 µg/mL (≈ 57.7 µM) |  | 6.25 µg/mL (≈ 6.25 µM) |
| CCCCCCCCCCCCCNCC(=O)N(CCC)CC(=O)N(CC(=O)N(CCCCN)CC(=O)N(CC(=O)N(CC(=O)N(CCCN)CC(N)=O)Cc1ccccc1)Cc1ccco1)C1CCCCC1 [Compound 911-M9] (H-[N(tridecyl)Gly][NPrGly][Gly(N-cHex)][Nlys][NFurfurylGly][Nphe][Gly(N(CH2)3NH2)]-NH2) | 99.5 ± 22 µg/mL (≈ 97.4 µM) | 1.56 µg/mL (≈ 1.53 µM) | 12.5 µg/mL (≈ 12.2 µM) |
| CCCCCCCCCCCCCC(=O)NCC(=O)N(CCC)CC(=O)N(CC(=O)N(CCCCN)CC(=O)N(CC(=O)N(CCCn1ccnc1)CC(=O)N(CCCN)CC(N)=O)Cc1ccco1)C(C)c1ccccc1 (stereo not shown) [Compound 911-M14] (Myristoyl-G[NPrGly][X1][Nlys][NFurfurylGly][N(3-imidazol-1-ylpropyl)Gly][Gly(N(CH2)3NH2)]-NH2) | > 200 µg/mL | 6.25 to 12.5 µg/mL | 25 µg/mL (≈ 22.9 µM) |
| CCCCCCCCCCCCCNCC(=O)N(CCC)CC(=O)N(CC(=O)N(CCCCN)CC(=O)N(CC(=O)N(CC(=O)N(CCCN)CC(N)=O)Cc1ccccc1)Cc1ccco1)Cc1ccc(Cl)cc1 [Compound 911-M5] (H-[N(tridecyl)Gly][NPrGly][Gly(Nα-4-Cl-benzyl)][Nlys][NFurfurylGly][Nphe][Gly(N(CH2)3NH2)]-NH2) | 114 ± 32.5 µg/mL (≈ 108 µM) | 1.56 µg/mL (≈ 1.47 µM) | 6.25 to 12.5 µg/mL |
| CCCCCCCCCCCCCNCC(=O)N(CCC)CC(=O)N(CC(=O)N(CCCCN)CC(=O)N(CC(=O)N(CC(=O)N(CCCN)CC(N)=O)Cc1ccccc1)Cc1ccco1)Cc1ccco1 [Compound 911-M7] (H-[N(tridecyl)Gly][NPrGly][NFurfurylGly][Nlys][NFurfurylGly][Nphe][Gly(N(CH2)3NH2)]-NH2) | 187 ± 21.5 µg/mL (≈ 183 µM) | 3.13 µg/mL (≈ 3.07 µM) | 12.5 µg/mL (≈ 12.3 µM) |
| CCCCCCCCCCCCCNCC(=O)N(CCC)CC(=O)N(CC(=O)N(CCCCN)CC(=O)N(CC(=O)N(CC(=O)N(CCCN)CC(N)=O)Cc1ccccc1)Cc1ccco1)Cc1ccccc1 [Compound 911-M3] (H-[N(tridecyl)Gly][NPrGly][Nphe][Nlys][NFurfurylGly][Nphe][Gly(N(CH2)3NH2)]-NH2) | 87.5 ± 10.8 µg/mL (≈ 85 µM) | 1.56 µg/mL (≈ 1.52 µM) | 6.25 µg/mL (≈ 6.07 µM) |
| CCCCCCCCCCCCCNCC(=O)N(CCC)CC(=O)N(CC(=O)N(CCCCN)CC(=O)N(CC(=O)N(C)CC(=O)N(CCCN)CC(N)=O)Cc1ccco1)C(C)c1ccccc1 (stereo not shown) [SAR 6] (H-[N(tridecyl)Gly][NPrGly][X1][Nlys][NFurfurylGly][Sar][Gly(N(CH2)3NH2)]-NH2) | 156 ± 4.7 µg/mL (≈ 161 µM) |  | 25 µg/mL (≈ 25.8 µM) |
| CCCCCCCCCCCCCNCC(=O)N(C)CC(=O)N(CC(=O)N(CCCCN)CC(=O)N(CC(=O)N(CC(=O)N(CCCN)CC(N)=O)Cc1ccccc1)Cc1ccco1)C(C)c1ccccc1 (stereo not shown) [SAR 2] (H-[N(tridecyl)Gly][Sar][X1][Nlys][NFurfurylGly][Nphe][Gly(N(CH2)3NH2)]-NH2) | 83.9 ± 5.7 µg/mL (≈ 82.6 µM) |  | 12.5 µg/mL (≈ 12.3 µM) |
| CCCCCCCCCCCCCC(=O)NCC(=O)N(CCC)CC(=O)N(CC(=O)N(CCCCN)CC(=O)N(CC(=O)N(CC(=O)N(CCCN)CC(N)=O)Cc1ccc(F)cc1)Cc1ccco1)C(C)c1ccccc1 (stereo not shown) [Compound 911-M19] (Myristoyl-G[NPrGly][X1][Nlys][NFurfurylGly][N(4-F-Bzl)Gly][Gly(N(CH2)3NH2)]-NH2) | 106 ± 34.8 µg/mL (≈ 97.6 µM) | 3.13 µg/mL (≈ 2.87 µM) | 6.25 µg/mL (≈ 5.74 µM) |
| CCCCCCCCCCCCCNCC(=O)N(CCC)CC(=O)N(CC(=O)N(CCCCN)CC(=O)N(CC(=O)N(CC(=O)N(CCCN)CC(N)=O)Cc1ccccc1)Cc1ccco1)[C@@H](C)C1CCCCC1 [Compound 911-M11] (H-[N(tridecyl)Gly][NPrGly][N(1S-cyclohexylethyl)Gly][Nlys][NFurfurylGly][Nphe][Gly(N(CH2)3NH2)]-NH2) | 82.5 ± 11.5 µg/mL (≈ 78.6 µM) | 1.56 µg/mL (≈ 1.49 µM) | 3.13 to 6.25 µg/mL |
| CCCN(CC(=O)N(CC(=O)N(CCCCN)CC(=O)N(CC(=O)N(CC(=O)N(CCCN)CC(N)=O)Cc1ccccc1)Cc1ccco1)C(C)c1ccccc1)C(=O)CNC (stereo not shown) [SAR 1] (H-[Sar][NPrGly][X1][Nlys][NFurfurylGly][Nphe][Gly(N(CH2)3NH2)]-NH2) | > 200 µg/mL |  | >100 µg/mL |
| CCCCCCCCCCCCCNCC(=O)N(CCC)CC(=O)N(CC(=O)N(CCCCN)CC(=O)N(CC(=O)N(CC(=O)N(CCCN)CC(N)=O)Cc1ccccc1)Cc1ccco1)Cc1cccs1 [Compound 911-M8] (H-[N(tridecyl)Gly][NPrGly][N(2-thienylmethyl)Gly][Nlys][NFurfurylGly][Nphe][Gly(N(CH2)3NH2)]-NH2) | 108 ± 34.6 µg/mL (≈ 104 µM) |  | 6.25 µg/mL (≈ 6.04 µM) |
| CCCCCCCCCCCCCNCC(=O)N(CCC)CC(=O)N(CC(=O)N(C)CC(=O)N(CC(=O)N(CC(=O)N(CCCN)CC(N)=O)Cc1ccccc1)Cc1ccco1)C(C)c1ccccc1 (stereo not shown) [SAR 4] (H-[N(tridecyl)Gly][NPrGly][X1][Sar][NFurfurylGly][Nphe][Gly(N(CH2)3NH2)]-NH2) | 61.8 ± 16.1 µg/mL (≈ 62.7 µM) |  | 6.25 µg/mL (≈ 6.34 µM) |
| CCCCCCCCCCCCCNCC(=O)N(CCC)CC(=O)N(CC(=O)N(CCCCN)CC(=O)N(C)CC(=O)N(CC(=O)N(CCCN)CC(N)=O)Cc1ccccc1)C(C)c1ccccc1 (stereo not shown) [SAR 5] (H-[N(tridecyl)Gly][NPrGly][X1][Nlys][Sar][Nphe][Gly(N(CH2)3NH2)]-NH2) | 157 ± 10.1 µg/mL (≈ 160 µM) |  | 12.5 to 25 µg/mL |
